From article PMC9980915, “MYCMI-7: A Small MYC-Binding Compound that Inhibits MYC: MAX Interaction and Tumor Growth in a MYC-Dependent Manner” (Cancer Research Communications, 2022)
pKd: −log10 of the molar value.

Experiments:
MYC = MYC (Homo sapiens, UniProt P01106); assay: biochemical
TOP2A = TOP2A (Homo sapiens, UniProt P11388); assay: in vitro TOP2A kDNA decatenation assay; format: biochemical
Sequence of TOP2A (P11388 whole entry): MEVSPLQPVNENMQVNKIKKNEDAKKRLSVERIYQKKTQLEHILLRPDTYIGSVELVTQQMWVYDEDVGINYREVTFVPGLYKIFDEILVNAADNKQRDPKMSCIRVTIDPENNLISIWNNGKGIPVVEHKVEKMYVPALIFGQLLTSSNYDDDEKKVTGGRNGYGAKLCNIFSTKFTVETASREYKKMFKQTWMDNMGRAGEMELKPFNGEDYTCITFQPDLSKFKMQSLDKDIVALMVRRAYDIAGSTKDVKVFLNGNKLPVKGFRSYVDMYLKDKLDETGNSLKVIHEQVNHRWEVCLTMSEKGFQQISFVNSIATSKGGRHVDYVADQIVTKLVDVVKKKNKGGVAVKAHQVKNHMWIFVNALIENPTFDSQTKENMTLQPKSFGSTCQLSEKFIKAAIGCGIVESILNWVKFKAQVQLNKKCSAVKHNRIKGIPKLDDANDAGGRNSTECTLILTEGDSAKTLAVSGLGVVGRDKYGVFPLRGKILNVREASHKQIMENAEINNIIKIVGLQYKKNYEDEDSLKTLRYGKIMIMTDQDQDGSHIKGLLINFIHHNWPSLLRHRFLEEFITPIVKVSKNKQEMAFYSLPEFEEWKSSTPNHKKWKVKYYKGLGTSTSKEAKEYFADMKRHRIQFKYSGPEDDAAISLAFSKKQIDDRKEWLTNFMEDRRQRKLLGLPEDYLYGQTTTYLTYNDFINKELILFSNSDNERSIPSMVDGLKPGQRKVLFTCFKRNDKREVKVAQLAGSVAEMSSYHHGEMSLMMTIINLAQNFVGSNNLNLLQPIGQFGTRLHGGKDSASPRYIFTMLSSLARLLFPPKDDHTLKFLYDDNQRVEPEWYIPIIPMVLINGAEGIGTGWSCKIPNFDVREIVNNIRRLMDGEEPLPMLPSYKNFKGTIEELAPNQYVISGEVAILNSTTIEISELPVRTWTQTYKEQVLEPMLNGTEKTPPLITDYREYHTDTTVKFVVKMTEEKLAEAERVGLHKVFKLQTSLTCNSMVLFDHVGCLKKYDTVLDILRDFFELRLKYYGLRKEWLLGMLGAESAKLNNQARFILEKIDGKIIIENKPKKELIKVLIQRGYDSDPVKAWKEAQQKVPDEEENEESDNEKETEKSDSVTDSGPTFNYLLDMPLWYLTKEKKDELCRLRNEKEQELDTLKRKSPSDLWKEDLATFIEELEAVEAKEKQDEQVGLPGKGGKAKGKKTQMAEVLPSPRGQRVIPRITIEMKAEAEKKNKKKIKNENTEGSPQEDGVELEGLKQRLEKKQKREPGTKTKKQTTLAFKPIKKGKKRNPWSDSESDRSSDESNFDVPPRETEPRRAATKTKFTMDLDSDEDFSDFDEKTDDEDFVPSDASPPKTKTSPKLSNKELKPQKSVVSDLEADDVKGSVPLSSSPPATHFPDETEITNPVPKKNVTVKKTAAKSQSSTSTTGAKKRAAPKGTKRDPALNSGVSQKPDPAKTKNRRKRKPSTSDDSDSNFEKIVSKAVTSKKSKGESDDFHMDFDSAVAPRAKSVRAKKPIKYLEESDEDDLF

Sequence of MYC (P01106 368-454 limits assumed): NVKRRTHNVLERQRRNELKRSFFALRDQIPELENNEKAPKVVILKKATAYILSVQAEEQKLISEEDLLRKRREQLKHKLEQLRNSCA

Compound | pKd (MYC) | in vitro TOP2A kDNA decatenation assay (TOP2A)
CCN(CC)CC[n+]1ccc2c(C)c3[nH]c4ccccc4c3c(C)c2c1 [MYCMI-7, 2-(5,11-Dimethyl-6H-25-pyrido[4,3-b]carbazol-2-yl)-N,N-diethylethanamine acetate] | ~5.40 | > 10 µmol/L
COc1cccc2c1C(=O)c1c(O)c3c(c(O)c1C2=O)C[C@@](O)(C(=O)CO)C[C@@H]3O[C@H]1C[C@H](N)[C@H](O)[C@H](C)O1 [doxorubicin, reference compound] | – | ~ 3 μmol/L
